Source: patent US11339154B2, “Heterocycle-substituted bicyclic azole pesticides” (FMC Corporation, priority 2016, dated 2022)

Assays:
Type in all cases: in vivo
[1] = tested on: Western Flower Thrips (Frankliniellla occidentalis (Pergande)); assay: Test F: control of Western Flower Thrips on Soleil bean plant, contact and/or systemic, spray; details: 50 ppm spray; 6 days; very good to excellent control; criterion is plant damage and/or 100% mortality
Description: (§1) Formulation and Spray Methodology for Tests A-F
(§2) Test compounds were formulated using a solution containing 10% acetone, 90% water and 300 ppm X-77® Spreader Lo-Foam Formula non-ionic surfactant containing alkylarylpolyoxyethylene, free fatty acids, glycols and isopropanol (Loveland Industries, Inc. Greeley, Colo., USA). The formulated compounds were applied in 1 mL of liquid through a SUJ2 atomizer nozzle with 1/8 JJ custom body (Spraying Systems Co. Wheaton, Ill., USA) positioned 1.27 cm (0.5 inches) above the top of each test unit. Test compounds were sprayed at the rates indicated, and each test was replicated three times.
For evaluating control of the Western Flower Thrips (Frankliniellla occidentalis (Pergande)) through contact and/or systemic means, the test unit consisted of a small open container with a 5-7-day-old Soleil bean plant inside.
Test compounds were formulated and sprayed at 250 and/or 50 ppm. After spraying, the test units were allowed to dry for 1 hour, and then 22-27 adult thrips were added to each unit. A black, screened cap was placed on top, and the test units were held for 6 days at 25° C. and 45-55% relative humidity.

[2] = tested on: green peach aphid (Myzus persicae (Sulzer)); assay: whole plant or invertebrate; details: in Raphanus sativus, 144 h, 6 days; for mortality at 50 ppm: 50 ppm spray; for mortality at 250 ppm: 250 ppm spray
Description: as §1, §2
For evaluating control of green peach aphid (Myzus persicae (Sulzer)) through contact and/or systemic means, the test unit consisted of a small open container with a 12-15-day-old radish plant inside. This was pre-infested by placing on a leaf of the test plant 30-40 aphids on a piece of leaf excised from a culture plant (cut-leaf method). The aphids moved onto the test plant as the leaf piece desiccated. After pre-infestation, the soil of the test unit was covered with a layer of sand.
Test compounds were formulated and sprayed at 250 and/or 50 ppm. After spraying of the formulated test compound, each test unit was allowed to dry for 1 hour and then a black, screened cap was placed on top. The test units were held for 6 days in a growth chamber at 19-21° C. and 50-70% relative humidity. Each test unit was then visually assessed for insect mortality.

[3] = tested on: cotton melon aphid (Aphis gossypii (Glover)); assay: whole plant or invertebrate; details: 144 h, 6 days; for mortality at 50 ppm: 50 ppm spray; for mortality at 250 ppm: 250 ppm spray
Description: as §1, §2
For evaluating control of cotton melon aphid (Aphis gossypii (Glover)) through contact and/or systemic means, the test unit consisted of a small open container with a 6-7-day-old cotton plant inside. This was pre-infested with 30-40 insects on a piece of leaf according to the cut-leaf method, and the soil of the test unit was covered with a layer of sand.
Test compounds were formulated and sprayed at 250 and/or 50 ppm. After spraying, the test units were maintained in a growth chamber for 6 days at 19° C. and 70% relative humidity. Each test unit was then visually assessed for insect mortality.

[4] = tested on: sweetpotato whitefly (Bemisia tabaci (Gennadius)); assay: whole plant or invertebrate; details: in Gossypium hirsutum, 312 h, 13 days; for mortality at 50 ppm: 50 ppm spray; for mortality at 250 ppm: 250 ppm spray
Description: as §1, §2
For evaluating control of the sweetpotato whitefly (Bemisia tabaci (Gennadius)) through contact and/or systemic means, the test unit consisted of a small open container with a 12-14-day-old cotton plant inside. Prior to the spray application, both cotyledons were removed from the plant, leaving one true leaf for the assay. Adult whiteflies were allowed to lay eggs on the plant and then were removed from the test unit. Cotton plants infested with at least 15 eggs were submitted to the test for spraying.
Test compounds were formulated and sprayed at 250 and/or 50 ppm. After spraying, the test units were allowed to dry for 1 hour. The cylinders were then removed, and the units were taken to a growth chamber and held for 13 days at 28° C. and 50-70% relative humidity. Each test unit was then visually assessed for insect mortality.

SMILES | control efficacy: plant damage (30% or less plant damage and/or 100% mortality) [1] [%] | mortality at 50 ppm [2] [%] | mortality at 250 ppm [2] [%] | mortality at 50 ppm [3] [%] | mortality at 250 ppm [3] [%] | mortality at 50 ppm [4] [%] | mortality at 250 ppm [4] [%]
COC(CNC(=O)c1ccc(-c2ccc3nn(-c4cccnc4)cc3c2)c(Cl)c1)OC [Compound 18] | ≤ 30 |  |  |  |  |  | 
COC(CNC(=O)c1cccc(-c2ccc3nn(-c4cccnc4)cc3c2)c1)OC [Compound 25, N-(2,2-dimethoxyethyl)-3-[2-(3-pyridinyl)-2H-indazol-5-yl]benzamide] |  | ≥ 80 | ≥ 80 | ≥ 80 | ≥ 80 | ≥ 50 | ≥ 50
O=C(NCCO)c1cccc(-c2ccc3nn(-c4cccnc4)cc3c2)c1 [Compound 31, N-(2-hydroxyethyl)-3-[2-(3-pyridinyl)-2H-indazol-5-yl]benzamide] |  | ≥ 80 | ≥ 80 | ≥ 80 | ≥ 80 |  | 
O=C(NC1CCOCC1)c1csc(-c2ccc3nn(-c4cccnc4)cc3c2)n1 [Compound 64, 2-[2-(3-pyridinyl)-2H-indazol-5-yl]-N-(tetrahydro-2H-pyran-4-yl)-4-thiazolecarboxamide] |  | ≥ 80 | ≥ 80 | ≥ 80 | ≥ 80 |  | ≥ 50
O=C(NCc1ncccn1)c1ncsc1-c1ccc2nn(-c3cccnc3)cc2c1 [Compound 78, 5-[2-(3-pyridinyl)-2H-indazol-5-yl]-N-(2-pyrimidinylmethyl)-4-thiazolecarboxamide] |  | ≥ 80 | ≥ 80 | ≥ 80 |  |  | 
CNC(=O)C1(NC(=O)c2cc(-c3ccc4nn(-c5cccnc5)cc4c3)ccn2)CC1 [Compound 85, N-[1-[(methylamino)carbonyl]cyclopropyl]-4-[2-(3-pyridinyl)-2H-indazol-5-yl]-2-pyridinecarboxamide] |  | ≥ 80 |  | ≥ 80 |  |  | 
NC(=O)C1(NC(=O)c2cc(-c3ccc4nn(-c5cccnc5)cc4c3)ccn2)CC1 [Compound 86, N-[1-(aminocarbonyl)cyclopropyl]-4-[2-(3-pyridinyl)-2H-indazol-5-yl]-2-pyridinecarboxamide] |  | ≥ 80 |  | ≥ 80 |  |  | 
CN(C)C(=O)C1(NC(=O)c2cc(-c3ccc4nn(-c5cccnc5)cc4c3)ccn2)CC1 [Compound 87, N-[1-[(dimethylamino)carbonyl]cyclopropyl]-4-[2-(3-pyridinyl)-2H-indazol-5-yl]-2-pyridinecarboxamide] |  | ≥ 80 |  | ≥ 80 |  |  | 
CNC(=O)COc1cccc(-c2ccc3nn(-c4cccnc4)cc3c2)c1 [Compound 102, N-methyl-2-[3-[2-(3-pyridinyl)-2H-indazol-5-yl]phenoxy]acetamide] |  | ≥ 80 |  | ≥ 80 |  | ≥ 50 | ≥ 50
COC(=O)C(C)(C)NC(=O)c1nnc(-c2ccc3nn(-c4cccnc4)cc3c2)o1 [Compound 105, 2-methyl-N-[[5-[2-(3-pyridinyl)-2H-indazol-5-yl]-1,3,4-oxadiazol-2-yl]carbonyl]alanine methyl ester] |  |  |  | ≥ 80 |  |  | 
COC(=O)C(C)(C)NC(=O)c1nnc(-c2ccc3nn(-c4cccnc4)cc3c2)s1 [Compound 128, 2-methyl-N-[[5-[2-(3-pyridinyl)-2H-indazol-5-yl]-1,3,4-thiadiazol-2-yl]carbonyl]alanine methyl ester] |  |  |  | ≥ 80 |  |  | 
CC(C)(C#N)NC(=O)c1coc(-c2ccc3nn(-c4cccnc4)cc3c2)n1 [Compound 155, N-(1-cyano-1-methylethyl)-2-[2-(3-pyridinyl)-2H-indazol-5-yl]-4-oxazolecarboxamide] |  | ≥ 80 |  | ≥ 80 |  |  | 
